Experimental findings from ChEMBL document CHEMBL5465560, “Selectivity Literature for EUbOPEN Chemogenomic Library” (2024) are described below.

The target of assay [1] is Serine/threonine-protein kinase PAK 6 (Homo sapiens) (UniProt Q9NQU5). Conditions: at 10 µM.
For assay [2], the target named is Serine/threonine-protein kinase 38-like (Homo sapiens) (UniProt Q9Y2H1). Description: Selectivity interaction (Kinase panel (DSF assay)) EUB0001558a STK38L.
Assay [3] addresses Tyrosine-protein kinase Lck (Homo sapiens, UniProt P06239). Put plainly: Selectivity interaction (KinomeScan (DiscoverX)) EUB0001049a LCK. Conditions: at 1 µM.
Assay [4] concerns the target AP2-associated protein kinase 1 (Homo sapiens, UniProt Q2M2I8). Description: Selectivity interaction (KinomeScan (DiscoverX)) EUB0000655a AAK1. Particulars: at 10 µM.
The next assay deals with Misshapen-like kinase 1 (Homo sapiens, UniProt Q8N4C8). Description: Selectivity interaction (KinomeScan (DiscoverX)) EUB0000666a MINK1. Particulars: at 10 µM.
The subject of assay [5] is Mast/stem cell growth factor receptor Kit (Homo sapiens), P10721 [T670I]. Description: (§1) Selectivity interaction (Kinase panel (Z-LYTE Assay)) EUB0001632a KIT. Conditions: at 10 µM.
Assay [6] has as its system Mast/stem cell growth factor receptor Kit (Homo sapiens), P10721 [V559D,V654A]. The description is as §1. Particulars: at 10 µM.
The subject of assay [7] is Mast/stem cell growth factor receptor Kit (Homo sapiens), P10721 [V559D]. The description is as §1. Conditions: at 10 µM.
Assay [8] deals with Mast/stem cell growth factor receptor Kit (Homo sapiens), P10721 [V560G]. The description is as §1. Conditions: at 10 µM.
Assay [9] deals with Mast/stem cell growth factor receptor Kit (Homo sapiens, UniProt P10721). Described as §1. Particulars: at 10 µM.
Assay [10] concerns the target Protein arginine N-methyltransferase 3 (Homo sapiens, UniProt O60678). Description: Selectivity interaction (Methyltransferase screen (radiometric assays, panel of 8 PRMTs, 21 protein lysine methyltransferases, 3 DNA methyltransferases, and one RNA methyltransferase)) EUB0000272b PRMT3.
Assay [11] deals with Histone-lysine N-methyltransferase SETD2 (Homo sapiens) (UniProt Q9BYW2). Description: Selectivity interaction (Methyltransferase screen (radiometric assays, panel of 8 PRMTs, 21 protein lysine methyltransferases, 3 DNA methyltransferases, and one RNA methyltransferase)) EUB0000272b SETD2.
For assay [12], the target named is Cell division control protein 42 homolog (Homo sapiens) (UniProt P60953). Put plainly: Selectivity interaction (SelectScreen profiling (Invitrogen)) EUB0000607a CDC42. Conditions: at 2 µM.
The target of assay [13] is T1, Serine/threonine-protein kinase Nek2 (Homo sapiens) (UniProt P51955).
T1 sequence (whole entry): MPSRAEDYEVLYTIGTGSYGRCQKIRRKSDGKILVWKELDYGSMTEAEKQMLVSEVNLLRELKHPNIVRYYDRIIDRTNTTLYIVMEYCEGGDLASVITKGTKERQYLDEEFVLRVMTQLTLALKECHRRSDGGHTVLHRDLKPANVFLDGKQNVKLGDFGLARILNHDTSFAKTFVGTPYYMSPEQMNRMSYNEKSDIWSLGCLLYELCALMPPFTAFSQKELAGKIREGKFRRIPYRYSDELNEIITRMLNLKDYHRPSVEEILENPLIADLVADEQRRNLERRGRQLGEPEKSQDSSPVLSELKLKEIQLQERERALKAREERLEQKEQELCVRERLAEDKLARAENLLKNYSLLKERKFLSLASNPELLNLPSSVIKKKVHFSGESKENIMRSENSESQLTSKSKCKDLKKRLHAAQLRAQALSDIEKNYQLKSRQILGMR
Put plainly: Selectivity interaction (SelectScreen profiling (Invitrogen)) EUB0000607a NEK2. Particulars: at 2 µM.

The target in assay [14] is T2, Dual specificity mitogen-activated protein kinase kinase 6 (Homo sapiens) (UniProt P52564).
T2 sequence (whole entry): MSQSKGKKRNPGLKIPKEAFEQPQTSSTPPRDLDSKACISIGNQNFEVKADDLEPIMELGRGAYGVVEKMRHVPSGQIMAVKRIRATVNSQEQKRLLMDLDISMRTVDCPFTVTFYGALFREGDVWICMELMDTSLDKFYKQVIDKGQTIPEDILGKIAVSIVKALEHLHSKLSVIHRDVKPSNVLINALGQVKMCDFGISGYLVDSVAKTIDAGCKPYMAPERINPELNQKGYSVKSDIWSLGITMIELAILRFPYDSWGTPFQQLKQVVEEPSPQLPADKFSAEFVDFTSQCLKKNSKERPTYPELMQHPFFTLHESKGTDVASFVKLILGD
Description: Selectivity interaction (ActivX KiNativ screen (kinase selectivity in THP-1 cell lysates)) EUB0000639a MAP2K6. Format: subcellular. Particulars: lysate, at 0.04 µM.

Assay [15] has as its system Proto-oncogene tyrosine-protein kinase receptor Ret (Homo sapiens), P07949 [M918T]. Description: (§2) Selectivity interaction (KinomeScan (DiscoverX)) EUB0000595a RET. Particulars: at 10 µM.
Assay [16] relates to Proto-oncogene tyrosine-protein kinase receptor Ret (Homo sapiens), P07949 [V804L]. Described as §2. Conditions: at 10 µM.
The target in assay [17] is Proto-oncogene tyrosine-protein kinase receptor Ret (Homo sapiens, UniProt P07949). The assay is described as §2. Conditions: at 10 µM.
Assay [18] has as its target T3, Dual serine/threonine and tyrosine protein kinase (Homo sapiens) (UniProt Q6XUX3).
T3 sequence (whole entry): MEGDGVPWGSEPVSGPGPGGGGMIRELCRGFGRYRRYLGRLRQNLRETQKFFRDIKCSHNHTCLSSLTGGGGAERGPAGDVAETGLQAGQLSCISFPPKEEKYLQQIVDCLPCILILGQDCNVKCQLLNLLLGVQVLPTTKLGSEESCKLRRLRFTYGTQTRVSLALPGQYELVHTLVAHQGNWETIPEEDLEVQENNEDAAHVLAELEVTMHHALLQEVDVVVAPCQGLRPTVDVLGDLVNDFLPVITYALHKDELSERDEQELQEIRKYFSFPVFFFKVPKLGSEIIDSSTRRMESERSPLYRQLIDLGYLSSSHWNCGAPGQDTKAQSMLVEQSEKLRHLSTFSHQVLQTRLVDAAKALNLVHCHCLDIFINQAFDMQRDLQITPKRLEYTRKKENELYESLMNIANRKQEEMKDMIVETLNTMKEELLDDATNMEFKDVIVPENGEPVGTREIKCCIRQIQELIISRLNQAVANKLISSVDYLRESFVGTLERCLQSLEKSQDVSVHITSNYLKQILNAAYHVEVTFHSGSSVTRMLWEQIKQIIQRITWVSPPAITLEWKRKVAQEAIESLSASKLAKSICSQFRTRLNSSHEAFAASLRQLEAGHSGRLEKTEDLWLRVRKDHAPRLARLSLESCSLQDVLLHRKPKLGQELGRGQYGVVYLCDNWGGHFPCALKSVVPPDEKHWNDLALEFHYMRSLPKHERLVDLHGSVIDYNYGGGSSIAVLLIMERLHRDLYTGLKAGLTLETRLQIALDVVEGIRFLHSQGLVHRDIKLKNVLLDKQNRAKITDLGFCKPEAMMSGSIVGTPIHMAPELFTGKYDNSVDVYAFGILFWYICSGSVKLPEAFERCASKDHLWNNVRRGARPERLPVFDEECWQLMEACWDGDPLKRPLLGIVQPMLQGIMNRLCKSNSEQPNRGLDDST
Put plainly: Selectivity interaction (KinomeScan (DiscoverX)) EUB0000618a DSTYK. Conditions: at 10 µM.

Histone-lysine N-methyltransferase SETD2 (Homo sapiens), sequence (Q9BYW2 whole entry): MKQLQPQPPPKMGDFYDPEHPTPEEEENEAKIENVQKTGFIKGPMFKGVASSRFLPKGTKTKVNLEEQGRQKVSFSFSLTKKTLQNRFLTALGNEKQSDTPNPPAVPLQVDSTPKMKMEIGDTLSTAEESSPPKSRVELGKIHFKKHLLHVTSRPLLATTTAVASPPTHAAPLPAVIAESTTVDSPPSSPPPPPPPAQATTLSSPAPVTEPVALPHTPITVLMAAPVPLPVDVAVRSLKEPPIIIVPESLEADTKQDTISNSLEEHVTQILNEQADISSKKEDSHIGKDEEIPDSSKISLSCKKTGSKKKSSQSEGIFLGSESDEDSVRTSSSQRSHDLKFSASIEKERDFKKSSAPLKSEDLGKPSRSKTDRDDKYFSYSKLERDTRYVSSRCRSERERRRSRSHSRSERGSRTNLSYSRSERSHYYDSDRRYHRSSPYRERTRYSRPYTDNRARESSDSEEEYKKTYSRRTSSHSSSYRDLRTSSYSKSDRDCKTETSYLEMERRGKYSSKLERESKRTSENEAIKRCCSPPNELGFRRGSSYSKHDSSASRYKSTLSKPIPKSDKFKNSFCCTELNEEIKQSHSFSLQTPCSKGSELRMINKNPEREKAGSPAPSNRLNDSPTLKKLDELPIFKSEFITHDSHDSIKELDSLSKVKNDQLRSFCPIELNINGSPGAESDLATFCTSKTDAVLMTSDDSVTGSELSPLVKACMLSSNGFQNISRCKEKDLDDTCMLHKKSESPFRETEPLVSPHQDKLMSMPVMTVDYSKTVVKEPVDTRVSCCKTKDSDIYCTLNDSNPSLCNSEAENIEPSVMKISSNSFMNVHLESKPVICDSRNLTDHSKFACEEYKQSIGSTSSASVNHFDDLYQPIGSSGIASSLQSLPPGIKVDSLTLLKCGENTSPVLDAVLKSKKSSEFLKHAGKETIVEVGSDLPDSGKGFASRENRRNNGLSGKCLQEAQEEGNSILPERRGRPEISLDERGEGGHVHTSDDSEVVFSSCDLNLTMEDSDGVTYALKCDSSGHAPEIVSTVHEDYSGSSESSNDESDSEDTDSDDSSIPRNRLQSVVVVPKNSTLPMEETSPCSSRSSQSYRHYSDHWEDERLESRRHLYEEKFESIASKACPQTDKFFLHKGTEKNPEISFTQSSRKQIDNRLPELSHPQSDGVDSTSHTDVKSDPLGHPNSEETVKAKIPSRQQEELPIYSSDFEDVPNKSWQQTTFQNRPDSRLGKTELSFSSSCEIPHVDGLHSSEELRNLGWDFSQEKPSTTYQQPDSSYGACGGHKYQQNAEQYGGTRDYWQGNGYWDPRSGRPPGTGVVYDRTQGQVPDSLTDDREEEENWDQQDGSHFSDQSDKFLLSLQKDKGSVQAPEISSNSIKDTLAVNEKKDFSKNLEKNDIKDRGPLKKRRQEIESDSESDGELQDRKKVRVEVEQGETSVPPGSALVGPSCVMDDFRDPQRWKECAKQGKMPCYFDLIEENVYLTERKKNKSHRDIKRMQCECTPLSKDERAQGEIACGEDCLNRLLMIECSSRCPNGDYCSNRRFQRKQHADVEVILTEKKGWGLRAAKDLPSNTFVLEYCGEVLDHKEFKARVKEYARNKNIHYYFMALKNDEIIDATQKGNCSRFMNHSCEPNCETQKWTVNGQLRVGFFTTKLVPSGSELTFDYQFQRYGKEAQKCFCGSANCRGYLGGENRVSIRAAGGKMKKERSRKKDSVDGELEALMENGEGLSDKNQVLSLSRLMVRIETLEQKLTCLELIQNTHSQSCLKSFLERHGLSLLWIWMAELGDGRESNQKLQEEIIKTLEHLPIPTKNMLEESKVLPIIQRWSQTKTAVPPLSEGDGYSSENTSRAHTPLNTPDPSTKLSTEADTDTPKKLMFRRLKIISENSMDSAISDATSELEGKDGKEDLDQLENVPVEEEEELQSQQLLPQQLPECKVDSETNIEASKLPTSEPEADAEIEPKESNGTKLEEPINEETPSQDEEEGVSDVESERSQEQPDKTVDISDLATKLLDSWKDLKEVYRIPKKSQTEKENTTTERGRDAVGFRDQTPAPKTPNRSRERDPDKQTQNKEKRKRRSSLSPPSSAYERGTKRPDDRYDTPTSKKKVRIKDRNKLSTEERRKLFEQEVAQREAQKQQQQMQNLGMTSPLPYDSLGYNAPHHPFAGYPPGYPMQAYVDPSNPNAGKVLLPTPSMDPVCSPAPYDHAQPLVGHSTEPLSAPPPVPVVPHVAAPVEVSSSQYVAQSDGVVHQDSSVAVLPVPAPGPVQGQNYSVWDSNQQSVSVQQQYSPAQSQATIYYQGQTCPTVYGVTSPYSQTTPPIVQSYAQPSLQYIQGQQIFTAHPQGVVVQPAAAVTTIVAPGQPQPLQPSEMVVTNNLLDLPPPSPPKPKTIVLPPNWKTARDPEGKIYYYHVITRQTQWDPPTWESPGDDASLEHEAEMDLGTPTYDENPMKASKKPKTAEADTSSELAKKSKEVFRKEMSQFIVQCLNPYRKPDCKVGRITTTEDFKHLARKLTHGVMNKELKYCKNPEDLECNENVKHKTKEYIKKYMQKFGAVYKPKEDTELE
Protein arginine N-methyltransferase 3, sequence (O60678 2-531 limits assumed): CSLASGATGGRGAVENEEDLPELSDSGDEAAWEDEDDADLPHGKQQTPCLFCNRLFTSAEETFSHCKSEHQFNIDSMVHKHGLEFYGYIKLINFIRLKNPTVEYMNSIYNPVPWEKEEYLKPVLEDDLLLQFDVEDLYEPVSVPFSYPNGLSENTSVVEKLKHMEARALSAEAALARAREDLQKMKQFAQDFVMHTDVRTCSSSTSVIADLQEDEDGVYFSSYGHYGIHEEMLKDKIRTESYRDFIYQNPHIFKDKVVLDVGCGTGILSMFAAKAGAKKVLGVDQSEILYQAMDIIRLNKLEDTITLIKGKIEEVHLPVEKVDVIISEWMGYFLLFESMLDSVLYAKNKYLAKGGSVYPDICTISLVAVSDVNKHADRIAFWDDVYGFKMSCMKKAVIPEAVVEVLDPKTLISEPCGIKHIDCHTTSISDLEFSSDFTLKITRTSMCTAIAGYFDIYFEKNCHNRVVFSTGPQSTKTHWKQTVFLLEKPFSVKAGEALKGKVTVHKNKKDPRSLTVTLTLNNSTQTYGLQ
Mast/stem cell growth factor receptor Kit (Homo sapiens), P10721 [V560G], sequence (P10721 whole entry V560G): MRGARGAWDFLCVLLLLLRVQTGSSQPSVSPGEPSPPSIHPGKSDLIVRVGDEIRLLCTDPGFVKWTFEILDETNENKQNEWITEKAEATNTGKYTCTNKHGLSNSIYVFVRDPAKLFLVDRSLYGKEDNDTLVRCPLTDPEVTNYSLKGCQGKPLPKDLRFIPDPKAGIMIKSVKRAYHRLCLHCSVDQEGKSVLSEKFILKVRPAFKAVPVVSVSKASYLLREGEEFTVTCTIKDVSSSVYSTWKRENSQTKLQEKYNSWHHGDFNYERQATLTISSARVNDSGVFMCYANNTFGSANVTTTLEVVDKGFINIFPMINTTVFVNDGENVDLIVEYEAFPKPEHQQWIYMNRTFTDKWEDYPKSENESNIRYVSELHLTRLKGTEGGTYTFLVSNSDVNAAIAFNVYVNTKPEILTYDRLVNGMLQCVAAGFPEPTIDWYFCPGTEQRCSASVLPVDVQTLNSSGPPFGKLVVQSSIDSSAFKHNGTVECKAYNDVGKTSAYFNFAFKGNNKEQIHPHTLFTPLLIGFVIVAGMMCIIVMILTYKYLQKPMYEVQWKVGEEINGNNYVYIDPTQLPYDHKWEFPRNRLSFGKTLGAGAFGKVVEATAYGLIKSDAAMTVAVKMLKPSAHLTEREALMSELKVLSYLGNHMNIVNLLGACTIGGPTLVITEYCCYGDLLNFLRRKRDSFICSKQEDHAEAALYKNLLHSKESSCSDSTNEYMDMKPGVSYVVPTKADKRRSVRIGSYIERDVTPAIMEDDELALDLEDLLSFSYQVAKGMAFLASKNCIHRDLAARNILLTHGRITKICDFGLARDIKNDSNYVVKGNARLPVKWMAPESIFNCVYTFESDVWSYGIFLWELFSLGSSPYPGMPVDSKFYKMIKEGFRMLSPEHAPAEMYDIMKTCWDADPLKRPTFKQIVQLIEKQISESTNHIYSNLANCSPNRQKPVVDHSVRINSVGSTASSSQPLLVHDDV
Mast/stem cell growth factor receptor Kit (Homo sapiens), P10721 [V559D,V654A], sequence (P10721 whole entry V559D/V654A): as the sequence (P10721 whole entry V560G) above, with V559D, G560V, V654A counted along it

Regarding `Cc1cc([C@@H](C)Nc2ccccc2C(=O)O)c2nc(N3CCOCC3)cc(=O)n2c1` [AZD-6482], the % of control in [1] turned out to be 93%.

Compound `CC(C)(O)[C@H](F)CN1Cc2cc(NC(=O)c3cnn4cccnc34)c(N3CCOCC3)cc2C1=O` returned a dTM in assay [2] of -0.2 K. As to `COc1cc(Nc2nc(C)cc(-c3cnn4nc(OC)ccc34)n2)cc(C(F)(F)F)c1`, the % of control in [3] worked out at 96%.

In the case of `CN(C)CCOc1ccc(-c2nc(-c3ccncc3)c(-c3ccc4c(c3)CC/C4=N\O)[nH]2)cc1`, the % of control in [4] is 76%.

`O=C(NOC[C@H](O)CO)c1ccc(F)c(F)c1Nc1ccc(I)cc1F`: the % of control on Misshapen-like kinase 1 worked out at 94%.

Take `Cn1cc(-n2cnc3c(NCc4nc5cc(Cl)c(Cl)cc5[nH]4)nc(N4CCOCC4)nc32)cn1`: the % of control turned out to be 0.683% in assay [5]; 0.874% in assay [6]; 6.85% in assay [7]; 1.94% in [8]; 7.07% in [9].

Take `Cc1cc(C)cc([C@H]2c3cc(C)ccc3NC(=O)CN2C(=O)c2ccc(Br)s2)c1`: the % of activity in assay [10] (at 1 µM) turned out to be 102%; in assay [10] (at 10 µM), 102%; in assay [11] (at 1 µM) it was 98%; in assay [11] (at 10 µM), 98.3%. Turning to `CNC(=O)Nc1ccc(-c2nc(N3CC4CCC(C3)O4)c3cnn(C4CCC5(CC4)OCCO5)c3n2)cc1`, the % of inhibition in [12] is 7%; in [13], 10%. In the case of `CC[C@@H]1[C@H](F)C(=O)N[C@@H]1COc1nccc2cc(C(N)=O)c(OC)cc12` [ZIMLOVISERTIB], the % of inhibition in assay [14] is 4.7%. With `COCC(=O)NC/C=C/c1ccc2ncnc(Nc3ccc(Oc4ccc(C)nc4)c(C)c3)c2c1` [CP-724714], the % of control in assay [15] worked out at 77%; in assay [16] it was 100%; in [17], 87%. In turn, `O[C@H]1CC[C@H](Nc2ncc3nc(Nc4c(F)cc(F)cc4F)n([C@H]4CCOC4)c3n2)CC1` gave a % of control in assay [18] of 91%.
